{"source": "patent US12285013B2", "about": "“Processing method for increasing seed production rate of seed fruits of Cucumis sativus L” (Yangzhou University, priority 2023, dated 2025)", "tested_on": "seed fruits of Cucumis sativus L.", "test": "Soaking and dipping of female flowers of seed fruits of Cucumis sativus L. in the pollination stage", "format": "in vivo", "details": "50 μM solution with Tween 80 10000:1, greenhouse", "method": "A processing method for increasing seed production efficiency of seed fruits of Cucumis sativus L., comprising the following steps: • (1) Preparing a plant growth regulator according to a formula proportion; • Preparing a 5-azacytidine solution with a concentration of 50 μM, adding an emulsifier Tween 80 at the same time, and mixing the 5-azacytidine solution and the emulsifier Tween 80 at a proportion of 10000:1 to obtain the plant growth regulator; • (2) Selecting seed fruits of Cucumis sativus L. growing naturally in a greenhouse and reaching a pollination stage, and dipping female flowers thereof with the plant growth regulator prepared in step (1) before pollination; • (3) Picking male flowers for pollination after the female flowers are completely dry; • (4) Dipping the pollinated female flowers again; • (5) Conducting field routine cultivation management.\nIn step (2), the preserved solution of the prepared plant growth regulator is poured into any container, and the female flowers of the seed fruits of Cucumis sativus L. reaching a pollination stage are completely immersed in the plant growth regulator in the container for at least 5 seconds.\nIn step (2), in the greenhouse, the temperature is stabilized at 20° C.-35° C., the humidity is 70%-90%, the pH value of the cultivation soil is 6.5, a selected species of Cucumis sativus L. is a species of North China Cucumis sativus L. used for seed production, a row spacing for seed fruit cultivation is fixed at 75 cm, a planting distance is 25 cm, and the number of plants planted in each row is 80.\nStep (3) is specifically as follows: picking male flowers blooming on the same plant, removing all petals, poking stamens of the male flowers into the female flowers after the female flowers soaked and dipped by the plant growth regulator are completely dry, and repeating the process for multiple times to increase pollination success rate.\nStep (4) is specifically as follows: repeating the soaking and dipping treatment described in step (2) for successfully pollinated female flowers of Cucumis sativus L. on the third day after pollination.\nIn a third aspect of the present invention, a processing method for increasing seed production efficiency of seed fruits of Cucumis sativus L. is provided, which mainly comprises the following steps: • (1) Preparing a reagent. Specifically: preparing a 5-azacytidine solution with a concentration of 50 μM, adding an emulsifier Tween 80 at the same time according to a proportion of 10000:1, and preserving the reagent in a refrigerator at 4° C. • (2) Selecting seed fruits of Cucumis sativus L. growing naturally in a greenhouse and reaching a pollination stage, and dipping female flowers thereof with the reagent prepared in step (1) before pollination. […]", "key": {"[1]": {"details": "female flowers dipped before pollination and on the third day after"}}, "data": [{"compound": "Nc1ncn([C@@H]2O[C@H](CO)[C@@H](O)[C@H]2O)c(=O)n1", "note": "[5-azacytidine]", "values": [{"measurement": "fruit length of the seed fruits", "setting": "[1]", "result": "significantly reduced"}, {"measurement": "number of seeds of the seed fruits", "setting": "[1]", "result": "without affecting"}, {"measurement": "seed production efficiency of the seed fruits", "setting": "[1]", "result": "increased"}, {"measurement": "weight of Cucumis sativus L. (fruit weight)", "setting": "female flowers treated in the pollination stage", "result": "significantly reduce"}]}]}
